Patent US8436186B2, “Thiazolyl piperidine derivatives” (Merck Patent Gesellschaft mit beschrankter Haftung, priority 2008, dated 2013)

Target: SphK1 (Homo sapiens, UniProt Q9NYA1)
Assay: SphK1 384-well flashplate kinase assay
Format: biochemical
Details: enzyme assay
Protocol: The kinase assay is carried out as a 384-well flashplate assay.
5 nM modified SphK1, 800 nM omega-biotinyl-D-erythro-sphingosine and 1 μM ATP (with 0.3 μCi of ^33P-ATP/well) are incubated in a total volume of 50 μl (25 mM HEPES, 5 mM MgCl2, 1 mM dithiothreitol, 0.01% of Brij35, 0.1% of BSA (fatty acid-free), pH 7.4) without or with test substance (5-10 concentrations) at 30° C. for 120 min. The reaction is terminated using 25 μl of 200 mM EDTA solution, filtered off with suction at room temperature after 30 min, and the cavities are washed 3 times with 100 μl of 0.9% NaCl solution. The non-specific proportion of the kinase reaction (blank) is determined using 0.5 mM NaCl. Radioactivity is measured in topcount. IC50 values are calculated using RS1.

Chain of SphK1 (Q9NYA1 whole entry): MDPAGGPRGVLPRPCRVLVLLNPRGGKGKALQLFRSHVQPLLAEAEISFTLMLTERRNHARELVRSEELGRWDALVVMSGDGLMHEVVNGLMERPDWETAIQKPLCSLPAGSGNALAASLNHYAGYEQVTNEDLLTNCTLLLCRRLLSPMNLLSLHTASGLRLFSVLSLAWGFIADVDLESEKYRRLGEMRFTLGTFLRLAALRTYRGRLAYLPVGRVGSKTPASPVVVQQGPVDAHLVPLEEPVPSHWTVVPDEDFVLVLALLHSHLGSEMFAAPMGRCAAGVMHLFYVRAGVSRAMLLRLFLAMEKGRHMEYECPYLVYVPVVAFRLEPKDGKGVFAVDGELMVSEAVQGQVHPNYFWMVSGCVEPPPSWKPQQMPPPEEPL

Row | IC50 | Compound
1 | 10 to 1000 nM | CC1(C)CCC(C)(C)c2cc(-c3csc(C4CCN(Cc5c[nH]cn5)CC4)n3)ccc21 [Compound A75]
2 | 10 to 1000 nM | CN1CCC(c2nc(-c3ccc4c(c3)C(C)(C)CCC4(C)C)cs2)CC1 [Compound A33]
3 | 1000 to 10000 nM | CC1(C)CCC(C)(C)c2cc(-c3csc(C4CCN(CCN5CCCCC5)CC4)n3)ccc21 [Compound A19]
4 | 10 to 1000 nM | CC1(C)CCC(C)(C)c2cc(-c3csc(C4CCN(C(=O)C5CNCCO5)CC4)n3)ccc21 (stereo not shown) [Compound A65]
5 | 1000 to 10000 nM | CC1(C)CCC(C)(C)c2cc(-c3csc(C4CCN(C(=O)[C@H](N)CO)CC4)n3)ccc21 [Compound A70]
6 | 1000 to 10000 nM | OC[C@@H](O)CN1CCC(c2nc(-c3ccc4c(c3)CCCC4)cs2)CC1 [Compound A14]
7 | 1000 to 10000 nM | Cc1oncc1S(=O)(=O)N1CCC(c2nc(-c3ccc4c(c3)C(C)(C)CCC4(C)C)cs2)CC1 [Compound A82]
8 | 10 to 1000 nM | CC1(C)CCC(C)(C)c2cc(-c3csc(C4CCN(CCO)CC4)n3)ccc21 [Compound A9]
9 | 10 to 1000 nM | CC(CCO)N1CCC(c2nc(-c3ccc4c(c3)C(C)(C)CCC4(C)C)cs2)CC1 (stereo not shown) [Compound A40]
10 | 1000 to 10000 nM | CCN(CC)CCN1CCC(c2nc(-c3ccc4c(c3)C(C)(C)CCC4(C)C)cs2)CC1 [Compound A26]
11 | > 10000 nM | CCc1cc2c(cc1-c1csc(C3CCNCC3)n1)C(C)(C)CCC2(C)C [Compound C11]
12 | 10 to 1000 nM | Cn1ccnc1CN1CCC(c2nc(-c3ccc4c(c3)C(C)(C)CCC4(C)C)cs2)CC1 [Compound A73]
13 | > 10000 nM | CN1CCCC1CCN1CCC(c2nc(-c3ccc4c(c3)CCCC4)cs2)CC1 (stereo not shown) [Compound A7]
14 | 1000 to 10000 nM | COCC(C)NC(=O)N1CCC(c2nc(-c3ccc4c(c3)C(C)(C)CCC4(C)C)cs2)CC1 (stereo not shown) [Compound A78]
15 | 1000 to 10000 nM | CC1(C)CCC(C)(C)c2cc(-c3csc(C4CCN(CCN5CCOCC5)CC4)n3)ccc21 [Compound A25]
16 | 1000 to 10000 nM | CC1(C)CCC(C)(C)c2cc(-c3csc(C4CCN(CCCN5CCOCC5)CC4)n3)ccc21 [Compound B1]
17 | > 10000 nM | CN(C)CC(C)(C)CN1CCC(c2nc(-c3ccc4c(c3)C(C)(C)CCC4(C)C)cs2)CC1 [Compound A76]
18 | 10 to 1000 nM | CC1(C)CCC(C)(C)c2cc(-c3csc(C4CCN(CCCCO)CC4)n3)ccc21 [Compound B2]
19 | 10 to 1000 nM | CC1(O)CCCc2cc(-c3csc(C4CCNCC4)n3)ccc21 (stereo not shown) [Compound C2]
20 | 10 to 1000 nM | CC1(C)CCC(C)(C)c2cc(-c3csc(C4CCN(CCCN5CCCCC5)CC4)n3)ccc21 [Compound A28]
21 | 1000 to 10000 nM | Cc1cc(-c2csc(C3CCNCC3)n2)c(O)c2c1CCC2 [Compound C10]
22 | 10 to 1000 nM | CC1(C)CCC(C)(C)c2cc(-c3csc(C4CCN(Cc5cc[nH]n5)CC4)n3)ccc21 [Compound B7]
23 | 1000 to 10000 nM | Cn1cccc1CN1CCC(c2nc(-c3ccc4c(c3)C(C)(C)CCC4(C)C)cs2)CC1 [Compound B8]
24 | > 10000 nM | CC1(C)CCC(C)(C)c2cc(-c3csc(C4CCN(C(=O)CCN5CCNCC5)CC4)n3)ccc21 [Compound A67]
25 | 1000 to 10000 nM | Cc1cc2c(cc1-c1csc(C3CCNCC3)n1)C(C)(C)CCC2(C)C [Compound C5]
